From article PMC10545747, “Development of cyclopeptide inhibitors of cGAS targeting protein-DNA interaction and phase separation” (Nature Communications, 2023)
Values joined by “and” are separate entries in the source; they are usually repeats but may differ in a detail not shown here. Equal entries are not always repeated. Square brackets hold non-standard residues; d marks the D form. Peptide text beside a SMILES is read from it.

Molecular target: T1, recombinant human cGAS enzyme (hcGAS-ΔN, residues 147–522) (Homo sapiens, UniProt Q8N884)
T1 construct: N-terminally truncated human cGAS (hcGAS-ΔN, residues 147–522); 6xHis-SUMO (N, cleaved yes); made in house; host or cells: Escherichia coli BL21 (DE3)
T1 sequence (Q8N884 147-522, stated change not applied): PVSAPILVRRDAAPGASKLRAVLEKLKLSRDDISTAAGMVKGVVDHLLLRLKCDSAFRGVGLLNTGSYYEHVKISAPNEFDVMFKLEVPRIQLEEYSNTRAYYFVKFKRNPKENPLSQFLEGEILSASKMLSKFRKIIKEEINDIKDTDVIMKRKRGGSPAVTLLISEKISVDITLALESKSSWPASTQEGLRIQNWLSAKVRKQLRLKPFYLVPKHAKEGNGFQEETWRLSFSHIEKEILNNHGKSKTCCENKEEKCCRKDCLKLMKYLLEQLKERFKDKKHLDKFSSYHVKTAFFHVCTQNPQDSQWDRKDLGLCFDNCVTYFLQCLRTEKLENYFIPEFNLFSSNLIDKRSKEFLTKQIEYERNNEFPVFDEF
Experiment: RNA-based fluorescent biosensor assay of cGAS activity (2',3'-cGAMP formation), in vitro screening
Assay type: biochemical
Details: for Remaining activity (%), Fig. 1a source data / remaining activity at 20 µM: 20 μM, replicate values; for remaining activity at 20 µM: read-out: Remaining activity (%), Fig. 1a source data; for inhibition at 20 µM: peptides screened at 20 μM, Supplementary Table 1 / Fig. S5b, read-out: Inhibition %
In short: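 In 40 mM Tris-HCl pH 7.5, 100 mM NaCl, 10 mM MgCl2, ISD (0.5 μM) started the reaction with hcGAS-ΔN (1.5 μM), ATP (1 mM) and GTP (1 mM). Incubation was 2 h at 37 °C, with compounds screened at 20 μM. 2',3'-cGAMP formed was quantified with an RNA-based fluorescent biosensor.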

Remaining activity (%), Fig. 1a source data | remaining activity at 20 µM [%] | inhibition at 20 µM [%] | SMILES
99.1383% and 98.554% | 98.3 | 1 | CC(C)C[C@@H]1NC(=O)[C@H](CCCNC(=N)N)NC(=O)[C@H](C)NC(=O)[C@@H]2CCCN2C(=O)[C@@H](Cc2ccccc2)NC(=O)[C@H](C)NC(=O)[C@H](CCCNC(=N)N)NC(=O)[C@H](C)NC(=O)[C@@H]2CCCN2C(=O)[C@@H](Cc2ccccc2)NC1=O [XQ16, Cyclo (AfPARLfPAR)] (cyclo(ARA[dF]PARL[dF]P))
– | – | 0 | CC(C)C[C@@H]1NC(=O)[C@H](CCCNC(=N)N)NC(=O)[C@H](C(C)C)NC(=O)[C@@H]2CCCN2C(=O)[C@@H](Cc2ccccc2)NC(=O)[C@H](C)NC(=O)[C@H](CCCNC(=N)N)NC(=O)[C@H](CC(C)C)NC(=O)[C@@H]2CCCN2C(=O)[C@@H](Cc2ccccc2)NC1=O [XQ51, Cyclo (LfPLRAfPVR)] (cyclo(A[dF]PVRL[dF]PLR))
109.335% and 107.433% | 108 | 0 | CC(C)C[C@@H]1NC(=O)[C@H](CCCNC(=N)N)NC(=O)[C@H](C)NC(=O)[C@@H]2CCCN2C(=O)[C@@H](Cc2ccccc2)NC(=O)[C@H](CC(C)C)NC(=O)[C@H](CCCNC(=N)N)NC(=O)[C@H](C)NC(=O)[C@@H]2CCCN2C(=O)[C@@H](Cc2ccccc2)NC1=O [XQ9, Cyclo (LfPARLfPAR)] (cyclo(ARL[dF]PARL[dF]P))
– | – | 0 | CC(C)C[C@@H]1NC(=O)[C@H](CC(=O)O)NC(=O)[C@H](C(C)C)NC(=O)[C@@H]2CCCN2C(=O)[C@@H](Cc2ccccc2)NC(=O)[C@H](C)NC(=O)[C@H](CCCNC(=N)N)NC(=O)[C@H](C)NC(=O)[C@@H]2CCCN2C(=O)[C@@H](Cc2ccccc2)NC1=O [XQ58, Cyclo (AfPVDLfPAR)] (cyclo(ARA[dF]PVDL[dF]P))
